According to publication PMC5660082, “Bioluminescence imaging of G protein-coupled receptor activation in living mice” (Nature Communications, 2017):
Where two headings read alike, the source gives them in different places.

Target: T1, Sphingosine-1-phosphate receptor 1 (S1P1) (Mus musculus, UniProt O08530)
T1 construct: gene S1pr1; mouse S1pr1 coding region with C terminus linked to C-terminal firefly luciferase fragment (amino acids #394–550), S1P1–CLuc; with NLuc–β-arrestin2
Test: split luciferase β-arrestin2 recruitment (bioluminescence) in knock-in mouse embryonic fibroblasts
Assay type: cell-based

T1 sequence (O08530 2-382): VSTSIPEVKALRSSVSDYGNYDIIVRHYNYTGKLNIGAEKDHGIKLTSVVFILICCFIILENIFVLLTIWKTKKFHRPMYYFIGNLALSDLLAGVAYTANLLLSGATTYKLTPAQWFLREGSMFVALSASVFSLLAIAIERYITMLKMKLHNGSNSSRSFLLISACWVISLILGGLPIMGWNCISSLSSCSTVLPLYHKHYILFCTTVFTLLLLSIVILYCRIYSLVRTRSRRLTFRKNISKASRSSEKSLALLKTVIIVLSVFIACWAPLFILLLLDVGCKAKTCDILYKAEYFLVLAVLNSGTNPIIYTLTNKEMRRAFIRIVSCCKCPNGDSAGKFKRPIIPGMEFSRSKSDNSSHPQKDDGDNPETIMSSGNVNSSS
T1 sequence (Q91YI4 whole entry partner, the tested form may be a part): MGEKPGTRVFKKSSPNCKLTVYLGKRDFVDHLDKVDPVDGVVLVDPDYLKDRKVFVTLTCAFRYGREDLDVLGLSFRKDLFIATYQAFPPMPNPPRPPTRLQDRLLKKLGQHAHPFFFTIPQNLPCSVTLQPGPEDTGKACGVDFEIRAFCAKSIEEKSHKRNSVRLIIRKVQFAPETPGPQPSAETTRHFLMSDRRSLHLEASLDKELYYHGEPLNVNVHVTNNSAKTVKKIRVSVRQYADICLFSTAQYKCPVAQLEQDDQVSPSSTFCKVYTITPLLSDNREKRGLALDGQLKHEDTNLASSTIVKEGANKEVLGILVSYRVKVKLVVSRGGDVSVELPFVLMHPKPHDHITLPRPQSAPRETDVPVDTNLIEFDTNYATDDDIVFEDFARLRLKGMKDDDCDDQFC

**Q.** Which EC50 (read-out: EC50) does the source give for CCCCCCCCCCCCC/C=C/[C@@H](O)[C@@H](N)COP(=O)(O)O [S1P] here?
**A.** Its EC50 is 19.4 ± 0.8 nM.

**Q.** For CCCCCCCCCCCCCCC[C@@H](O)[C@@H](N)COP(=O)(O)O [dihydro-S1P], which EC50 is on record?
**A.** The EC50 was 32.4 ± 0.5 nM.
